One assay deals with T1, human amylin receptor (Homo sapiens, UniProt O60896+P30988).
T1 construct: expressed in transfected cells
T1 sequence (P30988 25-474): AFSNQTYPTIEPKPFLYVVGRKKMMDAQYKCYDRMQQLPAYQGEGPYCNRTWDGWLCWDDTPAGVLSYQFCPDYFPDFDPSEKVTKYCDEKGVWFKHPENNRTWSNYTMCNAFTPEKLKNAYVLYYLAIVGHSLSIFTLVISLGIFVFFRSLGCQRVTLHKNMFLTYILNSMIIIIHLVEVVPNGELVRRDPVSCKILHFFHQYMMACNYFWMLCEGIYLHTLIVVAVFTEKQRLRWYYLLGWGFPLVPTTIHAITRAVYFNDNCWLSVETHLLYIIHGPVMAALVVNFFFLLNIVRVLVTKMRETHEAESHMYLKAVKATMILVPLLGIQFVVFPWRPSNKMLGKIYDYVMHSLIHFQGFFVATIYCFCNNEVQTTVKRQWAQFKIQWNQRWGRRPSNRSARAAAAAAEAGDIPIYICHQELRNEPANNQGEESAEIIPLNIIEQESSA
T1 sequence (O60896 24-148 partner): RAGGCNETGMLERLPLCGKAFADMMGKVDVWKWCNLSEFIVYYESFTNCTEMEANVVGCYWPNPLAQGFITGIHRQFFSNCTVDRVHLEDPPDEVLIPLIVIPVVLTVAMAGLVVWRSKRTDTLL
The assay can be described thus: Assay (V) binding to the human amylin receptor (SPA, 125I-rat amylin). The settings on record: for IC50: human amylin receptor membranes, SPA, read-out: hAmylin-R bind IC50. In a few lines:
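SPA competition binding on membranes from Amylin 3(a)/CRE-luc cells, 35 ng/μL membranes with 0.05 mg/well beads. Buffer 50 mM Hepes pH 7.4, 1 mM CaCl2, 5 mM MgCl2, 0.1% OA, 0.02% Tween20. IC50 from one-site competition fit as affinity measure.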

In assay [1] the target is T2, human calcitonin receptor (Homo sapiens, UniProt P30988).
T2 construct: expressed in transfected cells
T2 sequence (P30988 25-474): T1 sequence (P30988 25-474)
The assay can be described thus: Assay (II)a functional assay, human calcitonin receptor (CRE luciferase, BHK cells).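 Also: luminescence from a CRE-driven luciferase reporter, read by single photon counting after cells were exposed to test samples for 3 h at 37 °C under 5% CO2.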 The settings on record: read-out: hCTR funct. EC50. The class given is cell-based.

The target in assay [2] is T2, human calcitonin receptor. The experiment in a line: Assay (VII) binding to the human calcitonin receptor (SPA, 125I-Calcitonin).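 Also: cell membranes coupled to SPA beads, competitive displacement read by scintillation counting, IC50 derived from a one-site competition fit as a measure of receptor affinity.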 The settings on record: read-out: hCTR bind IC50.
For assay [3], the target named is T3, human amylin receptor (amylin 3(a) receptor: human calcitonin receptor + RAMP-3) (Homo sapiens, UniProt O60896+P30988).
T3 construct: expressed in transfected cells
T3 sequence (P30988 25-474): T1 sequence (P30988 25-474)
T3 sequence (O60896 24-148 partner): T1 sequence (O60896 24-148 partner)
The experiment in a line: Assay (II)a functional assay, human amylin receptor (CRE luciferase, BHK cells). The class given is cell-based. The note with it: for EC50: read-out: hAmylin-R funct. EC50.
Description: Assay (II)—Functional Assays
Consequently, transcription is activated by promoters containing multiple copies of the cAMP response element (CRE).
The cell line was further transfected with RAMP-3, using standard methods.
After incubation overnight at 37° C. and 5% CO2, the growth medium was replaced by 50 μl/well assay medium (DMEM (without phenol red), Glutamax™, 10% FBS, and 10 mM Hepes, pH 7.4). Further, 50 μl/well of standard or sample in assay buffer were added. After 3 hours incubation at 37° C. and 5% CO2, the assay medium with standard or sample were removed and replaced by 100 μl/well PBS. Further, 100 μl/well LucLite™ was added. The plates were sealed and incubated at room temperature for 30 minutes. Finally, luminescence was measured on a TopCounter (Packard) in SPC (single photon counting) mode.

[4] abbreviates: Table 6, human functional selectivity (hCTR EC50 / hAmylin-R EC50).
[5] abbreviates: Table 6a, human functional selectivity (hCTR EC50 / hAmylin-R EC50), at least 5.
The mark [6] stands for this setting: Table 6j, hCTR funct. EC50 / hAmylin-R funct. EC50.
[7] abbreviates: Table 6j, human amylin receptor functional.
[8] abbreviates: Table 6k, hCTR funct. EC50 / hAmylin-R funct. EC50.
The mark [9] stands for this setting: functional assay, human amylin receptor.

Where two headings read alike, the source gives them in different places. Numbered stars: 1 amine (or outer) side, 2 acyl side, 3 side chain; on linkers, the order of the positions; unused ones are H or OH. Bridge positions count the residues as written; N and C are the ends. Side chains are listed from the residue outwards. Peptide text beside a SMILES is read from it. * marks the point of attachment. C20 diacid = O=C(O)CCCCCCCCCCCCCCCCCCC(=O)*; γGlu = O=C(O)[C@H](CCC(=O)[*:2])N[*:1]; AEEA = NCCOCCOCC(=O)O

In the case of `CC[C@H](C)[C@H](NC(=O)[C@H](C)NC(=O)CNC(=O)[C@H](Cc1ccccc1)NC(=O)[C@H](CC(N)=O)NC(=O)[C@@H]1CCCN1C(=O)[C@H](CO)NC(=O)[C@H](CO)NC(=O)[C@H](Cc1c[nH]cn1)NC(=O)[C@H](CCCNC(=N)N)NC(=O)[C@H](CC(C)C)NC(=O)[C@H](Cc1ccccc1)NC(=O)[C@H](CC(N)=O)NC(=O)[C@H](C)NC(=O)[C@H](CC(C)C)NC(=O)[C@H](CCCNC(=N)N)NC(=O)[C@H](CCC(N)=O)NC(=O)[C@@H](NC(=O)[C@H](C)NC(=O)[C@@H]1CSSC[C@H](NC(=O)[C@@H](N)CCCCNC(=O)COCCOCCNC(=O)CC[C@H](NC(=O)CCCCCCCCCCCCCCCCCCC(=O)O)C(=O)O)C(=O)N[C@@H](CC(N)=O)C(=O)N[C@@H]([C@@H](C)O)C(=O)N[C@@H](C)C(=O)N[C@@H]([C@@H](C)O)C(=O)N1)[C@@H](C)O)C(=O)N1CCC[C@H]1C(=O)N[C@@H](CO)C(=O)N1CCC[C@H]1C(=O)N[C@H](C(=O)N[C@@H](CC(N)=O)C(=O)N[C@H](C(=O)NCC(=O)N1CCC[C@H]1C(=O)N[C@@H](CC(N)=O)C(=O)N[C@H](C(=O)N[C@@H](Cc1ccc(O)cc1)C(N)=O)[C@@H](C)O)C(C)C)[C@@H](C)O` [Example 56] (H-K([AEEA-γGlu-C20 diacid])CNTATCATQRLANFLRHSSPNFGAIPSPTNVGPNTY-NH2; disulfide 2-7), the IC50 on human amylin receptor was 0.049 nM; in assay [2], 2.09 nM. The EC50 in assay [1] was 0.506 nM; in assay [3] (setting [7]), 0.102 nM. The “Ratio hCT/hAmylin funct.” value in assay [3] (setting [4]), in assay [3] (setting [5]), in assay [3] (setting [6]) and in assay [3] (setting [8]) was 5.0 in each case.

With `CC[C@H](C)[C@H](NC(=O)[C@H](C)NC(=O)CNC(=O)[C@H](Cc1ccccc1)NC(=O)[C@H](CC(N)=O)NC(=O)[C@@H]1CCCN1C(=O)[C@H](CO)NC(=O)[C@H](CO)NC(=O)[C@H](Cc1c[nH]cn1)NC(=O)[C@H](CCCNC(=N)N)NC(=O)[C@H](CC(C)C)NC(=O)[C@H](Cc1ccccc1)NC(=O)[C@H](CC(N)=O)NC(=O)[C@H](C)NC(=O)[C@H](CC(C)C)NC(=O)[C@H](CCCNC(=N)N)NC(=O)[C@H](CCC(N)=O)NC(=O)[C@@H](NC(=O)[C@H](C)NC(=O)[C@@H]1CSSC[C@H](NC(=O)[C@@H](N)CCCCNC(=O)COCCOCCNC(=O)CC[C@H](NC(=O)CCCCCCCCCCCCCCCCCCC(=O)O)C(=O)O)C(=O)N[C@@H](CC(N)=O)C(=O)N[C@@H]([C@@H](C)O)C(=O)N[C@@H](C)C(=O)N[C@@H]([C@@H](C)O)C(=O)N1)[C@@H](C)O)C(=O)N1CCC[C@H]1C(=O)N1CCC[C@H]1C(=O)N[C@@H](CO)C(=O)N[C@H](C(=O)N1CCC[C@H]1C(=O)N[C@H](C(=O)NCC(=O)N[C@@H](CO)C(=O)N[C@@H](CC(N)=O)C(=O)N[C@H](C(=O)N[C@@H](Cc1ccc(O)cc1)C(N)=O)[C@@H](C)O)C(C)C)[C@@H](C)O` [Example 53] (H-K([AEEA-γGlu-C20 diacid])CNTATCATQRLANFLRHSSPNFGAIPPSTPVGSNTY-NH2; disulfide 2-7), the concentration for half-maximal inhibition (IC50) at human amylin receptor turned out to be 0.052 nM; in assay [2], 5.38 nM. Further, the values for the EC50 in assay [1] and in assay [3] (setting [7]) were 0.625 nM and 0.064 nM, respectively. The “Ratio hCT/hAmylin funct.” value in assay [3] (setting [4]), in assay [3] (setting [5]), in assay [3] (setting [6]) and in assay [3] (setting [8]) was 9.8 throughout.

For the compound `CC[C@H](C)[C@H](NC(=O)[C@H](C)NC(=O)CNC(=O)[C@H](Cc1ccccc1)NC(=O)[C@H](CC(N)=O)NC(=O)[C@@H]1CCCN1C(=O)[C@H](CO)NC(=O)[C@H](CO)NC(=O)[C@H](Cc1c[nH]cn1)NC(=O)[C@H](CCCNC(=N)N)NC(=O)[C@H](CC(C)C)NC(=O)[C@H](Cc1ccccc1)NC(=O)[C@H](C)NC(=O)[C@H](C)NC(=O)[C@H](CC(C)C)NC(=O)[C@H](CCCNC(=N)N)NC(=O)[C@H](CCC(N)=O)NC(=O)[C@@H](NC(=O)[C@H](C)NC(=O)[C@@H]1CSSC[C@H](NC(=O)[C@@H](N)CCCCNC(=O)CC[C@H](NC(=O)CCCCCCCCCCCCCCCCCCC(=O)O)C(=O)O)C(=O)N[C@@H](CC(N)=O)C(=O)N[C@@H]([C@@H](C)O)C(=O)N[C@@H](C)C(=O)N[C@@H]([C@@H](C)O)C(=O)N1)[C@@H](C)O)C(=O)N1CCC[C@H]1C(=O)N[C@@H](CO)C(=O)N[C@@H](CO)C(=O)N[C@H](C(=O)N[C@@H](CC(N)=O)C(=O)N[C@H](C(=O)NCC(=O)N[C@@H](Cc1c[nH]cn1)C(=O)N[C@@H](CC(N)=O)C(=O)N[C@H](C(=O)N[C@@H](Cc1ccc(O)cc1)C(N)=O)[C@@H](C)O)C(C)C)[C@@H](C)O` [Example 93] (H-K([γGlu-C20 diacid])CNTATCATQRLAAFLRHSSPNFGAIPSSTNVGHNTY-NH2; disulfide 2-7), the results for the IC50 (on human amylin receptor; in assay [2]) were 0.176 nM and 17.8 nM, respectively. Also, the values for the EC50 in assay [1] and in assay [3] (setting [9]) were 1.15 nM and 0.118 nM, respectively. For the same compound, the “Ratio hCT/hAmylin funct.” value in assay [3] (setting [4]), in assay [3] (setting [5]), in assay [3] (setting [6]) and in assay [3] (setting [8]) was 9.7 each time.

As to `CC[C@H](C)[C@H](NC(=O)[C@H](C)NC(=O)CNC(=O)[C@H](Cc1ccccc1)NC(=O)[C@H](CC(N)=O)NC(=O)[C@@H]1CCCN1C(=O)[C@H](CO)NC(=O)[C@H](CO)NC(=O)[C@H](Cc1c[nH]cn1)NC(=O)[C@H](CCCNC(=N)N)NC(=O)[C@H](CC(C)C)NC(=O)[C@H](Cc1ccccc1)NC(=O)[C@H](CCC(=O)O)NC(=O)[C@H](C)NC(=O)[C@H](CC(C)C)NC(=O)[C@H](CCCNC(=N)N)NC(=O)[C@H](CCC(N)=O)NC(=O)[C@@H](NC(=O)[C@H](C)NC(=O)[C@@H]1CSSC[C@H](NC(=O)[C@H](CCCCN)NC(=O)COCCOCCNC(=O)COCCOCCNC(=O)CC[C@H](NC(=O)CCCCCCCCCCCCCCCCCCC(=O)O)C(=O)O)C(=O)N[C@@H](CC(N)=O)C(=O)N[C@@H]([C@@H](C)O)C(=O)N[C@@H](C)C(=O)N[C@@H]([C@@H](C)O)C(=O)N1)[C@@H](C)O)C(=O)N1CCC[C@H]1C(=O)N[C@@H](CO)C(=O)N[C@@H](CO)C(=O)N[C@H](C(=O)N[C@@H](CC(N)=O)C(=O)N[C@H](C(=O)NCC(=O)N[C@@H](CO)C(=O)N[C@@H](CC(N)=O)C(=O)N[C@H](C(=O)N[C@@H](Cc1ccc(O)cc1)C(N)=O)[C@@H](C)O)C(C)C)[C@@H](C)O` [Example 19], the IC50 at human amylin receptor turned out to be 0.556 nM; in assay [2], 20.4 nM. Moreover, the concentration for a half-maximal effect (EC50) in assay [1] is 5.32 nM; in assay [3] (setting [9]) it was 0.307 nM.

`CC[C@H](C)[C@H](NC(=O)[C@H](C)NC(=O)CNC(=O)[C@H](Cc1ccccc1)NC(=O)[C@H](CC(N)=O)NC(=O)[C@@H]1CCCN1C(=O)[C@H](CO)NC(=O)[C@H](CO)NC(=O)[C@H](Cc1c[nH]cn1)NC(=O)[C@H](CCCNC(=N)N)NC(=O)[C@H](CC(C)C)NC(=O)[C@H](Cc1ccccc1)NC(=O)[C@H](CCC(=O)O)NC(=O)[C@H](C)NC(=O)[C@H](CC(C)C)NC(=O)[C@H](CCCNC(=N)N)NC(=O)[C@H](CCC(N)=O)NC(=O)[C@@H](NC(=O)[C@H](C)NC(=O)[C@@H]1CSSC[C@H](NC(=O)[C@H](CCCCN)NC(=O)CC[C@H](NC(=O)CCCCCCCCCCCCCCCCCCC(=O)O)C(=O)O)C(=O)N[C@@H](CC(N)=O)C(=O)N[C@@H]([C@@H](C)O)C(=O)N[C@@H](C)C(=O)N[C@@H]([C@@H](C)O)C(=O)N1)[C@@H](C)O)C(=O)N1CCC[C@H]1C(=O)N[C@@H](CO)C(=O)N[C@@H](CO)C(=O)N[C@H](C(=O)N[C@@H](CC(N)=O)C(=O)N[C@H](C(=O)NCC(=O)N[C@@H](CO)C(=O)N[C@@H](CC(N)=O)C(=O)N[C@H](C(=O)N[C@@H](Cc1ccc(O)cc1)C(N)=O)[C@@H](C)O)C(C)C)[C@@H](C)O` [Example 9]: the concentration for half-maximal inhibition (IC50) amounted to 0.143 nM on human amylin receptor and 1.14 nM in assay [2]. In addition, the “Ratio hCT/hAmylin binding” value at human amylin receptor (human binding ratio, included for comparison) is reported as 8.0. Further, the 50% effective concentration (EC50) in assay [1] came to 1.29 nM; in assay [3] (Table 6i, human amylin receptor functional) it was 0.175 nM. The “Ratio hCT/hAmylin funct.” value was 7.4 in assay [3] (setting [4]); 7.4 in assay [3] (setting [5]); 7.4 in assay [3] (Table 6i, hCTR funct. EC50 / hAmylin-R funct. EC50); 7.4 in assay [3] (setting [6]).

The IC50 is the concentration needed to halve the response being measured. For orientation: EC50 means the concentration that produces a half-maximal response.

These data come from patent US8575091B1, “Amylin analogues and pharmaceutical compositions thereof” (Novo Nordisk A/S, priority 2012, dated 2013).
